According to paper PMC6792352, “Limited Chemical Structural Diversity Found to Modulate Thyroid Hormone Receptor in the Tox21 Chemical Library” (Environmental Health Perspectives, 2019):
Where a name gives a salt, the structure may show the parent alone.

Assay: in vitro
Conditions: rat, gh3-tre-luc cells, AC50 (uM) modified / 1000

| SMILES | CC50 at 24 h [µM] |
| --- | --- |
| COC(OC)OC [Trimethoxymethane] | > 90 |
| CC(O)COc1ccccc1 (centres unmarked) [1-Phenoxy-2-propanol] | > 90 |
| CN1[C@@H]2CC[C@H]1C[C@@H](OC(c1ccccc1)c1ccc(Cl)cc1)C2 (some centres unmarked) [Clobenztropine] | 5.13 |
| C1CCOC1 [Tetrahydrofuran] | > 100 |
| Cc1cccnc1 [3-Methylpyridine] | > 90 |
| O=C(O)COc1ccc2ccccc2c1 [2-Naphthoxyacetic acid] | > 90 |
| O=C(/C=C/c1ccccc1)OCc1ccccc1 [Benzyl cinnamate] | > 90 |
| CCCCOCCOC(=O)CCCCCCCCC(=O)OCCOCCCC [Bis(2-butoxyethyl) decanedioate] | > 90 |
| CC(C)(C)c1cccc(O)c1 [3-tert-Butylphenol] | > 90 |
| Sc1nc(S)nc(S)n1 [Trisodium 2,4,6-trithioxo-1,3,5-triazinane-1,3,5-triide] | > 50 |
| COC(=O)c1ccc(OC)cc1 [Methyl 4-methoxybenzoate] | > 90 |
| CC(=O)N/N=C/c1ccc([N+](=O)[O-])o1 [Nihydrazone] | 17.4 |
| CN(C)/N=N/c1[nH]cnc1C(N)=O [Dacarbazine] | > 90 |
| Clc1cc(Cl)c(Cl)nc1Cl [2,3,5,6-Tetrachloropyridine] | > 90 |
| Oc1noc2c1CCNC2 [Gaboxadol] | > 50 |
| CCCCCCC(O)CCCCCCCCCCC(=O)OC (centres unmarked) [Methyl 12-hydroxyoctadecanoate] | > 90 |
| C=CC(=O)NCOCCCC [N-(Butoxymethyl)acrylamide] | > 100 |
| OCCc1ccccn1 [2-(Pyridin-2-yl)ethanol] | > 90 |
| C[C@]12CCC(=O)C[C@@H]1CC[C@@H]1[C@@H]2CC[C@]2(C)C=CC[C@@H]12 [Androstenone] | > 50 |
| CCN(CC)CCOC[C@H]1O[C@@H](O)[C@H](OCCN(CC)CC)[C@@H](O)[C@@H]1O [Diethylaminoethyl-sephacel] | > 50 |
| O=C(O)Cc1nn(Cc2ccc(Br)cc2F)c(=O)c2ccccc12 [Ponalrestat] | > 50 |
| CC(C)(C)c1ccccc1O [2-tert-Butylphenol] | > 90 |
| CCc1cccc(O)c1 [3-Ethylphenol] | > 90 |
| CCCCOC(=O)c1ccc(O)cc1 [Butylparaben] | > 50 |
| CCNS(=O)(=O)c1ccc(C)cc1 [N-Ethyl-4-methylbenzenesulfonamide] | > 90 |

| SMILES | CC50 at 24 h [µM] |
| --- | --- |
| Oc1ccc(Cl)cc1 [4-Chlorophenol] | > 90 |
| Clc1ccc(CCC(Cn2ccnc2)Sc2c(Cl)cccc2Cl)cc1 (centres unmarked) [Butoconazole nitrate] | > 20 |
| OCc1ccc(Cl)cc1Cl [2,4-Dichlorobenzyl alcohol] | > 90 |
| CCC(C)(C)c1ccc(CC(C)CN2C[C@@H](C)O[C@@H](C)C2)cc1 (some centres unmarked) [Amorolfine] | 11.1 |
| CO[Si](CCCNc1ccccc1)(OC)OC [N-[3-(Trimethoxysilyl)propyl]aniline] | > 90 |
| CCCCCCCCCCCSCC(=O)O [3-Thiatetradecanoic acid] | 50.2 |
| Cc1ccc([N+](=O)[O-])cc1Cl [2-Chloro-1-methyl-4-nitrobenzene] | > 90 |
| N=C(N)NC(=O)Cc1c(Cl)cccc1Cl [Guanfacine hydrochloride] | 31.7 |
| C=CCN1C(=O)C(CC(C)C)NC1=S (centres unmarked) [Albutoin] | > 50 |
| ON(Cc1ccccc1)Cc1ccccc1 [N-Benzyl-N-hydroxy-1-phenylmethanamine] | > 90 |
| C=CCN(CC=C)CC=C [Triallylamine] | > 90 |
| C/C=C/C=C/COC(=O)C(C)C [2,4-Hexadienyl isobutyrate] | 75.5 |
| CCCOC(=O)c1ccc(C(=O)OCCC)nc1 [Dipropyl 2,5-pyridinedicarboxylate] | > 90 |
| CC[N+](CC)(CC)CCOC(=O)C(C1CCCC1)C1CCCC1 [Diponium bromide] | > 50 |
| CCCCCCC(C)OC(=O)CCCCC(=O)OC(C)CCCCCC (centres unmarked) [Diisooctyl adipate] | > 90 |
| CCCCCCCCOc1ccc(C(=O)O)cc1 [4-Octyloxybenzoic acid] | > 90 |
| Cc1ccnc2c1NC(=O)c1cccnc1N2C1CC1 [Nevirapine] | > 90 |
| Cc1ccc2c(c1N)C(=O)c1ccccc1C2=O [1-Amino-2-methylanthraquinone] | 78.4 |
| C/C=C(\C)C(=O)OCC/C=C\CC [(3Z)-Hex-3-en-1-yl (2E)-2-methylbut-2-enoate] | > 90 |
| CC1=NS(=O)(=O)c2cc(Cl)ccc2N1 [Diazoxide] | > 50 |
| CCCOC(=O)c1ccccc1C(=O)OCCC [Dipropyl phthalate] | > 90 |
| CC(C)=CC(=O)C=C(C)C [Phorone] | > 90 |
| CN(C)c1nc(=O)n(C2CCCCC2)c(=O)n1C [Hexazinone] | > 100 |
| CCCC1CCC(=O)CC1 [4-Propylcyclohexanone] | > 90 |
| OC(Cn1cncn1)(c1ccc(F)cc1)c1ccccc1F (centres unmarked) [Flutriafol] | > 90 |

| SMILES | CC50 at 24 h [µM] |
| --- | --- |
| CCCCCC/C=C/C(=O)OC [Methyl (2E)-2-nonenoate] | > 90 |
| OCC(CO)N[C@H]1C[C@](O)(CO)[C@@H](O)[C@H](O)[C@H]1O [Voglibose] | > 50 |
| Nc1ccn(C[C@@H](CO)OCP(=O)(O)O)c(=O)n1 [Cidofovir] | > 50 |
| COCc1c(C(C)C)nc(C(C)C)c(/C=C/[C@@H](O)C[C@@H](O)CC(=O)O)c1-c1ccc(F)cc1 [Cerivastatin sodium] | > 50 |
| CN(C)C(=O)Nc1ccccc1 [Fenuron] | > 90 |
| COc1c2ccoc2cc2oc(=O)ccc12 [5-Methoxypsoralen] | > 90 |
| CCN(C(=O)c1cc(C)cc(OC[C@H](C)Nc2ccncc2)c1)C(C)C [GW473178E methyl benzene sulphonic acid] | > 60 |
| C=CCN1CCCC1CNC(=O)c1cc(S(N)(=O)=O)cc(OC)c1OC (centres unmarked) [Veralipride] | > 50 |
| CCCCCC1CCCC(=O)O1 (centres unmarked) [6-Pentyltetrahydro-2H-pyran-2-one] | > 90 |
| O=C(Nc1ccc(Cl)c(Cl)c1)c1cc(Cl)cc(Cl)c1O [3,5-Dichlorosalicyl-3,4-dichloroanilide] | 2.97 |
| CC(C)CCCC(C)CCCC(C)CCCCC(C)CCCC(C)CCCC(C)C (centres unmarked) [Squalane] | > 50 |
| C1CN(P2(N3CC3)=NP(N3CC3)(N3CC3)=NP(N3CC3)(N3CC3)=N2)CCO1 (centres unmarked) [Fotretamine] | > 50 |
| CCC1CO1 (centres unmarked) [1,2-Epoxybutane] | > 90 |
| c1ccc2nc(N3CCNCC3)ccc2c1 [Quipazine maleate] | 36.9 |
| Nc1cccc2c(N)cccc12 [1,5-Naphthalenediamine] | > 90 |
| O=C1NCN(c2ccccc2)C12CCN(CCCOc1ccc(F)cc1)CC2 [AMI-193] | 14.1 |
| C[N+]1(CC2COC(c3ccccc3)(C3CCCCC3)O2)CCCCC1 (centres unmarked) [Oxapium iodide] | > 50 |
| O=C1C(c2[nH]c3ccccc3c2O)=Nc2ccccc21 [Indigo dye] | > 90 |
| O=P(O)(O)OC[C@H](O)CO [sn-Glycerol 3-phosphate bis(cyclohexylammonium)] | > 50 |
| N=C(N)S(=O)O [Amino(imino)methanesulfinic acid] | > 90 |
| FC1(F)C(F)(F)C(F)(F)C2(F)C(F)(C1(F)F)C(F)(F)C(F)(F)C1(F)C(F)(F)C(F)(F)C(F)(F)C(F)(F)C12F (centres unmarked) [Tetracosafluorotetradecahydrophenanthrene] | > 80 |
| COc1ccc(/C=C/C(=O)O)cc1 [4-Methoxy-(2E)-cinnamic acid] | > 50 |
| CCc1occc(=O)c1O [2-Ethyl-3-hydroxy-4H-pyran-4-one] | > 90 |
| O=C1CCC(N2C(=O)c3ccccc3C2=O)C(=O)N1 (centres unmarked) [Thalidomide] | > 90 |
| CC(O)CCCCn1c(=O)c2c(ncn2C)n(C)c1=O (racemic) [(+/-)-Lisofylline] | > 50 |

Same assay, conditions: rat, gh3-tre-luc cells, AC50 (uM) modified / 1000, Tox21_110001=Tox21_110931; viability, 1 nM T3 present, 24 h

| SMILES | CC50 at 24 h [µM] |
| --- | --- |
| Cc1ncsc1CCCl [Clomethiazole] | > 50 |

Same assay, conditions: rat, gh3-tre-luc cells, AC50 (uM) modified / 1000, Tox21_110001=Tox21_200294; viability, 1 nM T3 present, 24 h

| SMILES | CC50 at 24 h [µM] |
| --- | --- |
| CCCC(=O)Cl [Butyryl chloride] | > 90 |

Same assay, conditions: rat, gh3-tre-luc cells, AC50 (uM) modified / 1000, Tox21_110001=Tox21_200526; viability, 1 nM T3 present, 24 h

| SMILES | CC50 at 24 h [µM] |
| --- | --- |
| CCCCCCC#N [Heptanenitrile] | > 90 |

Same assay, conditions: rat, gh3-tre-luc cells, AC50 (uM) modified / 1000, Tox21_110001=Tox21_200572; viability, 1 nM T3 present, 24 h

| SMILES | CC50 at 24 h [µM] |
| --- | --- |
| O=[N+]([O-])c1ccc(CCl)cc1 [4-Nitrobenzyl chloride] | > 90 |

Same assay, conditions: rat, gh3-tre-luc cells, AC50 (uM) modified / 1000, Tox21_110001=Tox21_201433; viability, 1 nM T3 present, 24 h

| SMILES | CC50 at 24 h [µM] |
| --- | --- |
| O=C(CCl)CCl [1,3-Dichloropropanone] | 32.6 |

Same assay, conditions: rat, gh3-tre-luc cells, AC50 (uM) modified / 1000, Tox21_110001=Tox21_202028; viability, 1 nM T3 present, 24 h

| SMILES | CC50 at 24 h [µM] |
| --- | --- |
| CCOP(=S)(OCC)Oc1cnc2ccccc2n1 [Quinalphos] | > 90 |

Same assay, conditions: rat, gh3-tre-luc cells, AC50 (uM) modified / 1000, Tox21_110001=Tox21_202971; viability, 1 nM T3 present, 24 h

| SMILES | CC50 at 24 h [µM] |
| --- | --- |
| Nc1ccc2c(c1)Cc1ccccc1-2 [2-Aminofluorene] | > 90 |

Same assay, conditions: rat, gh3-tre-luc cells, AC50 (uM) modified / 1000, Tox21_110001=Tox21_300220; viability, 1 nM T3 present, 24 h

| SMILES | CC50 at 24 h [µM] |
| --- | --- |
| N#Cc1ccc(N(CC(N)=O)CC(F)(F)F)cc1C(F)(F)F [GSK232420A] | > 90 |

Same assay, conditions: rat, gh3-tre-luc cells, AC50 (uM) modified / 1000, Tox21_110001=Tox21_301029; viability, 1 nM T3 present, 24 h

| SMILES | CC50 at 24 h [µM] |
| --- | --- |
| CCCCOC(=O)[C@@H](C)Oc1ccc(Oc2ccc(C#N)cc2F)cc1 [Cyhalofop-butyl] | > 90 |

Same assay, conditions: rat, gh3-tre-luc cells, AC50 (uM) modified / 1000, Tox21_110001=Tox21_301219; viability, 1 nM T3 present, 24 h

| SMILES | CC50 at 24 h [µM] |
| --- | --- |
| CCCSP(=S)(OCC)Oc1ccc(Cl)cc1Cl (centres unmarked) [Prothiofos] | > 90 |

Same assay, conditions: rat, gh3-tre-luc cells, AC50 (uM) modified / 1000, Tox21_110001=Tox21_302809; viability, 1 nM T3 present, 24 h

| SMILES | CC50 at 24 h [µM] |
| --- | --- |
| O=C(CCl)CCl [1,3-Dichloropropanone] | 27.3 |
